{"source": "patent US7414107B2", "about": "“Pharmacologically active peptide conjugates having a reduced tendency towards enzymatic hydrolysis” (priority 1998, dated 2008)", "molecules": {"B1": {"name": "hPTH(1-84): full-length human PTH listed in the EIA kit specificity (protein, UniProt P01270 32-115, looked up)", "Parathyroid hormone": "SVSEIQLMHNLGKHLNSMERVEWLRKKLQDVHNFVALGAPLAPRDAGSQRPRKKEDNVLVESHEKSLGEADKADVNVLTKAKSQ", "modifications": "Parathyroid hormone"}}, "key": {"osteoblast": {"system": "osteoblast", "assay": "Osteoblast retraction assay", "assay_type": "cell-based, mice", "conditions": "for Retraction assay % Retracted cells: 10 nM, 1 h, mouse calvaria osteoblasts; for activity relative to the mother compound hPTH(1-34): Osteoblast retraction assay", "description": "Retraction assays were performed with osteoblast prepared from calvaria of 1-day old mice according to published protocols (Miller et al., 1976, Science 192:1340-1343). In brief, osteoblasts were seeded in serum-free minimal essential medium-α (αMEM) at a density of 3000 cells per cm^2 into 96-well tissue culture plates coated with 50 μg/ml of type I collagen in phosphate-buffered saline containing 0.1% bovine serum albumin (PBS). One day after plating, PTH compounds were added to a final concentration of 10 nM and incubation was carried out for 1 h. Cells were then fixed and stained with toluidine blue, and the number of retracted cells was counted by visual inspection."}, "leucine aminopeptidase": {"biological_target": "T1, leucine aminopeptidase (Sus scrofa, UniProt P28839)", "T1 construct": "purchased Sigma, UK type III-CP (catalogue number not given); host or cells: porcine kidney", "T1 sequence (P28839 1-519)": "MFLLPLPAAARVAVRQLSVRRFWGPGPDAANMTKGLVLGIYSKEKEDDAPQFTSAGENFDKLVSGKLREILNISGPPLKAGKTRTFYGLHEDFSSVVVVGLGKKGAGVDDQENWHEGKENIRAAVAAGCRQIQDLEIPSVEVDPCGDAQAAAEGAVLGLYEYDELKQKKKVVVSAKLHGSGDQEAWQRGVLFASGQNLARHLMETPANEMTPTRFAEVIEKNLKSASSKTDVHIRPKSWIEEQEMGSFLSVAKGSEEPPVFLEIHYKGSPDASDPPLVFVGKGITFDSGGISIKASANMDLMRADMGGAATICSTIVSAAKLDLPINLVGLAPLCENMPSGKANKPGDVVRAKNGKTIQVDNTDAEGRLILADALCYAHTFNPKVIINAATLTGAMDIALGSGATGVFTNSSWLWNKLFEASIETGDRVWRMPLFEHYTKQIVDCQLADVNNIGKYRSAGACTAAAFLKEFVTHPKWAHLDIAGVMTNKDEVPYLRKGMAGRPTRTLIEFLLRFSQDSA", "assay": "Hydrolysis kinetics in leucine aminopeptidase solution", "assay_type": "in vitro ADME, porcine", "conditions": "50 mM phosphate buffer pH 7.4, 37° C., leucine aminopeptidase 25 U/ml; for half-life: pig", "description": "(§1) Carboxypeptidase A (EC 3.4.17.1) type I from bovine pancreas, leucine aminopeptidase (EC 3.4.11.1) type III-CP from porcine kidney, α-chymotrypsin (EC […]) from bovine pancreas, and pepsin A (EC 3.4.23.1) from porcine stomach mucosa […] were obtained from Sigma, UK.\n(§2) Gradient HPLC analysis of samples from in vitro kinetic measurements performed as described below was performed using a Hewlett Packard HP 1100 HPLC system consisting of a HP 1100 Binary Pump, a HPI 100 Autosampler, a HPI 100 Column Thermostat and a HP 1100 Variable Wavelength Detector. A Merck LiChroCART column (125×4 mm I.D.) and a LiChroCART precolumn (4×4 mm I.D.) packed with Lichrospher RP-18 (5 .μum particles) was used. The column was kept at 25° C. or 75° C. and the column effluent was measured by UV detection at 215 run. Separation of the peptide conjugates or the native peptides from degradation products and constituents of the reaction solutions was accomplished using gradient elution of the column with mixtures of mobile phase A (0.1 vol % TFA in water) and mobile phase B (0.085 vol % TFA in acetonitrile) at a flow rate of 1 ml/min.\n(§3) The degradation of the peptide conjugate and the corresponding native peptide were studied at 37° C. in a 50 mM phosphate buffer solution at pH 7.4 containing leucine arninopeptidase (25 U/ml) or carboxypeptidase A (1 or 25 U/ml). Experiments were initiated by addition of an aliquot (100 μl) of a stock solution (1 mg/ml) of the peptide conjugate or the native peptide to 900 μl preheated enzyme solution giving a final concentration of ˜0.1 mg/ml (10^−5-10^−4M) of the peptide conjugate or the native peptide. The peptide/enzyme solution was kept at 37° C. using a SHT200D block heater from Stuart Scientific. At appropriate time intervals, samples of 100 μl were withdrawn from the peptide/enzyme solution, mixed thoroughly with 20 μl 25% TFA in acetonitrile in order to stop the enzymatic degradation process and analysed by HPLC as described above. Half-lives (t1/2) for the peptide conjugate and the corresponding native peptide in the enzyme solutions were calculated from plots of the natural logarithm to the concentration of the residual peptide (HPLC peak heights) against time using the formula t/2=1/kobs×ln(2), where kobs is the apparent first-order rate constant for the observed degradation."}, "carboxypeptidase A": {"biological_target": "T2, carboxypeptidase A (Bos taurus, UniProt P00730)", "T2 construct": "purchased Sigma, UK type I (catalogue number not given); host or cells: bovine pancreas", "T2 sequence (P00730 111-419)": "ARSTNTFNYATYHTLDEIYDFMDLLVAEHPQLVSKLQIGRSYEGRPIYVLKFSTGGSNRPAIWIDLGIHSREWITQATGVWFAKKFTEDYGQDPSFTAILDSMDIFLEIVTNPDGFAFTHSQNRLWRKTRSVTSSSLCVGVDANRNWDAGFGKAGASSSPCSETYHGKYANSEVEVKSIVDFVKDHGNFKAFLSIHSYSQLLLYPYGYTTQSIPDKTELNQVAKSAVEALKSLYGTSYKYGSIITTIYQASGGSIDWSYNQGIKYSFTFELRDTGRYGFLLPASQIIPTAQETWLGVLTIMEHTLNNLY", "assay": "Hydrolysis kinetics in carboxypeptidase A solution", "assay_type": "in vitro ADME, bovine", "conditions": "50 mM phosphate buffer pH 7.4, 37° C., carboxypeptidase A 1 U/ml", "description": "as §1, §2, §3"}, "PTH (1-34)-antibody": {"system": "PTH (1-34)-antibody", "conditions": "EIAS(h)-6101 from Peninsula Laboratories; cited from earlier work"}}}
{"molecule": "CC[C@H](C)[C@H](NC(=O)[C@H](CCC(=O)O)NC(=O)[C@H](CO)NC(=O)[C@@H](NC(=O)[C@H](CO)NC(=O)[C@H](CCCCN)NC(=O)[C@H](CCCCN)NC(=O)[C@H](CCCCN)NC(=O)[C@H](CCCCN)NC(=O)[C@H](CCCCN)NC(=O)[C@@H](N)CCCCN)C(C)C)C(=O)N[C@@H](CCC(N)=O)C(=O)N[C@@H](CC(C)C)C(=O)N[C@@H](CCSC)C(=O)N[C@@H](Cc1c[nH]cn1)C(=O)N[C@@H](CC(N)=O)C(=O)N[C@@H](CC(C)C)C(=O)NCC(=O)N[C@@H](CCCCN)C(=O)N[C@@H](Cc1c[nH]cn1)C(=O)N[C@@H](CC(C)C)C(=O)N[C@@H](CC(N)=O)C(=O)N[C@@H](CO)C(=O)N[C@@H](CCSC)C(=O)N[C@@H](CCC(=O)O)C(=O)N[C@@H](CCCNC(=N)N)C(=O)N[C@H](C(=O)N[C@@H](CCC(=O)O)C(=O)N[C@@H](Cc1c[nH]c2ccccc12)C(=O)N[C@@H](CC(C)C)C(=O)N[C@@H](CCCNC(=N)N)C(=O)N[C@@H](CCCCN)C(=O)N[C@@H](CCCCN)C(=O)N[C@@H](CC(C)C)C(=O)N[C@@H](CCC(N)=O)C(=O)N[C@@H](CC(=O)O)C(=O)N[C@H](C(=O)N[C@@H](Cc1c[nH]cn1)C(=O)N[C@@H](CC(N)=O)C(=O)N[C@@H](Cc1ccccc1)C(=O)O)C(C)C)C(C)C", "note": "[(Lys)6-PTH(1-34)(Human)-OH, H-(Lys)6-(-Ser-Val-Ser-Glu-Ile-Gln-Leu-Met-His-Asn-Leu -Gly-Lys-His-Leu-Asn-Ser-Met-Glu-Arg-Val-Glu-Trp-Leu-Arg-Lys-Lys-Leu-Gln -Asp-Val-His-Asn-Phe-OH]", "values": [{"measurement": "Retraction assay % Retracted cells", "setting": "osteoblast", "result": 34.7, "unit": "%"}, {"measurement": "activity relative to the mother compound hPTH(1-34)", "setting": "osteoblast", "result": 49, "unit": "%"}, {"measurement": "pseudo first-order rate constant for the degradation", "setting": "leucine aminopeptidase", "result": 0.0035, "unit": "min⁻¹"}, {"measurement": "half-life", "setting": "leucine aminopeptidase", "result": 3.3, "unit": "h"}]}
{"molecule": "CC[C@H](C)[C@H](NC(=O)[C@H](CCC(=O)O)NC(=O)[C@H](CO)NC(=O)[C@@H](NC(=O)[C@@H](N)CO)C(C)C)C(=O)N[C@@H](CCC(N)=O)C(=O)N[C@@H](CC(C)C)C(=O)N[C@@H](CCSC)C(=O)N[C@@H](Cc1c[nH]cn1)C(=O)N[C@@H](CC(N)=O)C(=O)N[C@@H](CC(C)C)C(=O)NCC(=O)N[C@@H](CCCCN)C(=O)N[C@@H](Cc1c[nH]cn1)C(=O)N[C@@H](CC(C)C)C(=O)N[C@@H](CC(N)=O)C(=O)N[C@@H](CO)C(=O)N[C@@H](CCSC)C(=O)N[C@@H](CCC(=O)O)C(=O)N[C@@H](CCCNC(=N)N)C(=O)N[C@H](C(=O)N[C@@H](CCC(=O)O)C(=O)N[C@@H](Cc1c[nH]c2ccccc12)C(=O)N[C@@H](CC(C)C)C(=O)N[C@@H](CCCNC(=N)N)C(=O)N[C@@H](CCCCN)C(=O)N[C@@H](CCCCN)C(=O)N[C@@H](CC(C)C)C(=O)N[C@@H](CCC(N)=O)C(=O)N[C@@H](CC(=O)O)C(=O)N[C@H](C(=O)N[C@@H](Cc1c[nH]cn1)C(=O)N[C@@H](CC(N)=O)C(=O)N[C@@H](Cc1ccccc1)C(=O)N[C@@H](CCCCN)C(=O)N[C@@H](CCCCN)C(=O)N[C@@H](CCCCN)C(=O)N[C@@H](CCCCN)C(=O)N[C@@H](CCCCN)C(=O)N[C@@H](CCCCN)C(=O)O)C(C)C)C(C)C", "note": "[PTH(1-34)(Human)-(Lys)6-OH, H-Ser-Val-Ser-Glu-Ile-Gln-Leu-Met-His-Asn-Leu-Gly-Lys -His-Leu-Asn-Ser-Met-Glu-Arg-Val-Glu-Trp-Leu-Arg-Lys-Lys-Leu-Gln-Asp-Val -His-Asn-Phe-Lys6-OH]", "values": [{"measurement": "half-life", "setting": "carboxypeptidase A", "result": 0.783, "unit": "h"}, {"measurement": "pseudo first-order rate constant for the degradation", "setting": "carboxypeptidase A", "result": 0.015, "unit": "min⁻¹"}, {"measurement": "Retraction assay % Retracted cells", "setting": "osteoblast", "result": 37.4, "unit": "%"}, {"measurement": "activity relative to the mother compound hPTH(1-34)", "setting": "osteoblast", "result": 55, "unit": "%"}, {"measurement": "pseudo first-order rate constant for the degradation", "setting": "leucine aminopeptidase", "result": 0.0012, "unit": "min⁻¹"}, {"measurement": "half-life", "setting": "leucine aminopeptidase", "result": 9.63, "unit": "h"}]}
{"molecule": "hPTH(1-38): human PTH fragment listed in the EIA kit specificity (SVSEIQLMHNLGKHLNSMERVEWLRKKLQDVHNFVALG; Parathyroid hormone; UniProt P01270 32-69, looked up, fragment)", "values": [{"measurement": "Specificity of the assay", "setting": "PTH (1-34)-antibody", "result": 100, "unit": "%"}]}
{"molecule": "hPTH(1-44): human PTH fragment listed in the EIA kit specificity (SVSEIQLMHNLGKHLNSMERVEWLRKKLQDVHNFVALGAPLAPR; Parathyroid hormone; UniProt P01270 32-75, looked up, fragment)", "values": [{"measurement": "Specificity of the assay", "setting": "PTH (1-34)-antibody", "result": 0, "unit": "%"}]}
{"molecule": "hPTH(39-68): human PTH fragment listed in the EIA kit specificity (APLAPRDAGSQRPRKKEDNVLVESHEKSLG; Parathyroid hormone; UniProt P01270 70-99, looked up, fragment)", "values": [{"measurement": "Specificity of the assay", "setting": "PTH (1-34)-antibody", "result": 0, "unit": "%"}]}
{"molecule": "ratPTH(1-34): rat PTH fragment listed in the EIA kit specificity (AVSEIQLMHNLGKHLASVERMQWLRKKLQDVHNF; Parathyroid hormone; UniProt P04089 32-65, looked up, fragment)", "values": [{"measurement": "Specificity of the assay", "setting": "PTH (1-34)-antibody", "result": 0, "unit": "%"}]}
{"molecule": "B1", "values": [{"measurement": "Specificity of the assay", "setting": "PTH (1-34)-antibody", "result": 0, "unit": "%"}]}
